In patent publication US20260276634A1, “METHOD FOR DETERMINING INTESTINAL PERMEABILITY” (BIOMEDAL, SL, priority 2023, published 2026):

Settings: human, in vivo
Experimental: Specifically, subjects (n=15) received 8 g of gluten after at least 8 hours of fasting, following a gluten-free diet for at least 36 hours in individuals without diagnosed celiac disease. The gluten consisted of gluten powder with flavorings (sweeteners and food colorings) contained in single-use heat-sealed sachets. At the same time, volunteers took 1 g of mannitol and 10 g of lactulose. Subsequently, the various urines were collected in separate containers, to be able to perform individualized measurements of the concentration in each void, as well as the total volume of the urines. The amount of gluten peptides present in urine excreted for 15 hours following gluten intake was determined using the iVYCHECK urine product and a calibrated lateral flow strip reader iVYCHECK Reader (Biomedal, Spain). […]
In this example conducted with 15 volunteers without symptoms of diagnosed digestive disease, basal urine is analyzed. […] The concentrations of GIP in the excreted urines were measured, both by ELISA and LFIA between 0-6 h after intake and between 2-15 h after intake individually. The GIP concentration of each urine of each volunteer (FIG. 4) and lactulose (FIG. 5) were measured, and subsequently, the % excreted relative to the ingested GIP and the lactulose/mannitol ratio (FIG. 6) were calculated. The correlation between lactulose: mannitol and GIP was determined. […]

Row | share of detectable gluten excreted in the first 9 to 15 hours [%] | time over which lactulose excretion occurs [h] | Compound
1 | > 80 |  | gluten
2 |  | > 15 | OC[C@H]1O[C@@H](O[C@@H]2[C@@H](CO)OC(O)(CO)[C@H]2O)[C@H](O)[C@@H](O)[C@H]1O (mixture of isomers) [lactulose]
